Values after ≈ are worked out from the molar mass of the structure shown. Read-outs that look alike come from different tables or passages of the source.
How the values were obtained:
[1] = test system: Bloodstream forms of T. brucei (clone 427-221a); experiment: Toxicity assay (resazurin, 72 h) on bloodstream forms of T. brucei; type: cell-based, Trypanosoma brucei; conditions: for Selectivity GI50 ratio: GI50(HL-60)/GI50(T. brucei); for Selectivity MIC ratio: MIC(HL-60)/MIC(T. brucei); for GI50 / MIC: 72 h; for MIC: concentration at which all cells were killed, determined microscopically, mean of three experiments
Description: (§1) Bloodstream forms of T. brucei (clone 427-221a) and human myeloid leukaemia HL-60 cells were grown in Baltz medium and RPMI medium, respectively. Both culture media were supplemented with 16.7 % (v/v) heat-inactivated foetal calf serum. All cultures were maintained in a humidified atmosphere containing 5 % CO2 at 37 °C.
(§2) Cells were seeded in 96-well plates in a final volume of 200 μl of their respective culture medium containing 10-fold serial dilutions of ionophore derivatives (10^-4 to 10^-10 M) and 1 % DMSO. Wells containing medium and 1 % DMSO served as controls. The initial cell densities were 1 × 10^4/ml for T. brucei and 1 × 10^5/ml for HL-60 cells. After 24 h incubation at 37 °C in a humidified atmosphere containing 5 % CO2, 20 μl of a 0.44 mM resazurin solution prepared in PBS was added and the cells were incubated for a further 48 h so that the total incubation time was 72 h. Thereafter, the plates were read on a microplate reader using a test wavelength of 570 nm and a reference wavelength of 630 nm. The 50 % growth inhibition (GI50) value, i.e. the concentration of a compound necessary to reduce the growth rate of cells by 50 % compared to the control was determined by linear interpolation according to the method described in [22]. The minimum inhibitory concentration (MIC) values, i.e. the concentration of the drug at which all trypanosome and human cells were killed, was determined microscopically. Each compound was independently tested three times.

[2] = test system: human myeloid leukaemia HL-60 cells; experiment: Toxicity assay (resazurin, 72 h) on HL-60 cells; type: cell-based; conditions: for MIC: determined microscopically, mean of three experiments; for GI50: Homo sapiens
Description: as §1, §2

[3] = test system: bloodstream forms of T. brucei; experiment: Measurement of changes in cell volume by light scattering; type: cell-based, Trypanosoma brucei; conditions: 100 μM; 5 × 10^7 cells/ml; measured every 15 min; decrease in absorbance = increase in cell volume
Description: Change in cell volume was determined by light scattering as previously described. In brief, bloodstream forms of T. brucei were seeded at a density of 5 × 10^7 cells/ml in 96-well plates in a final volume of 200 μl culture medium containing 100 μM of salinomycin or the salonimycin derivatives SAL-E7 or SAL-AM2 and 1 % DMSO. Absorbance of the cultures was measured at 490 nm every 15 min. A decrease in absorbance corresponded to an increase in cell volume. The experiment was repeated three times.
Change in cell volume can be measured by light scattering at 450–550 nm whereby a decrease in absorbance indicates swelling of cells. In order to be able to record measurable absorbance changes, a high cell density is required. […] However, the derivatives caused a slightly faster swelling of the cells than salinomyicn. […] During further incubation, trypanosomes increased their cell volume but cell swelling was much slower and much less. […] However, it seems that the transport efficiency determines the trypanocidal potency of salinomycin derivatives.
Fig. 3 Effect of salinomycin derivatives on the cell volume of bloodstream forms of T. brucei. […] Every 15 min, the absorbance at 490 nm was measured. […] Note that a decrease in absorbance corresponds to an increase in cell volume

[4] = test system: Bloodstream forms of T. brucei (clone 427-221a); set-up: method as in PMID 23517602; conditions: human cells vs bloodstream forms of T. brucei; cited from earlier work
[5] = test system: human peripheral blood mononuclear cells; set-up: method as in PMID 23517602, PMID 25769976; conditions: read-out: 50 % effective concentration (cytotoxicity); cited from earlier work
human nasal mucosa cells = test system: human nasal mucosa cells; set-up: method as in PMID 23517602, PMID 25769976; conditions: read-out: 50 % effective concentration (cytotoxicity); cited from earlier work
[6] = Trypanosoma brucei, T. brucei bloodstream forms
[7] = Trypanosoma brucei, T. brucei bloodstream forms, read-out: MIC
[8] = Trypanosoma brucei, T. brucei bloodstream forms, resazurin, mean ± SD of three experiments, read-out: GI50
[9] = HL-60 cells, 72 h, resazurin, mean ± SD of three experiments, read-out: GI50

Compound	Selectivity GI50 ratio [1]	Selectivity MIC ratio [1]	GI50 ([1]; Trypanosoma brucei) [µM]	MIC [1, 6] [µM]	MIC ([2]; HL-60 cells, 72 h) [µM]	GI50 ([2]; HL-60, 72 h) [µM]	MIC [1, 7] [µM]	GI50 [1, 8] [µM]	GI50 [2, 9] [µM]	MIC ([1]; T. brucei bloodstream forms) [µM]	MIC ([1]; T. brucei bloodstream forms, listed as salinomycin n-butyl amide)	MIC ([1]; T. brucei bloodstream forms, read-out: MIC) [µM]	Effect on cell volume (absorbance at 490 nm) [3]	selectivity (cytotoxic/trypanocidal ratio) [4]	EC50 [5] [µM]	EC50 (human nasal mucosa cells) [µM]
CCC1(C2OC(C3OC(O)(CO)C(C)CC3C)CC2C)CCC(C2(C)CCC3(CC(O)C(C)C(C(C)C(OC)C(C)C(=O)OC)O3)O2)O1 (centres unmarked) [MON-E1]	11.1	10	3.06 ± 0.06	10 (≈ 6.85 µg/mL)	100 (≈ 68.5 µg/mL)	34.1 ± 2.2	–	–	–	–	–	–	–	–	–	–
CCC1(C2OC(C3OC(O)(CO)C(C)CC3C)CC2C)CCC(C2(C)CCC3(CC(O)C(C)C(C(C)C(OC)C(C)C(=O)OCCO)O3)O2)O1 (centres unmarked) [MON-E2]	9.2	10	2.76 ± 0.1	10 (≈ 7.15 µg/mL)	100 (≈ 71.5 µg/mL)	25.3 ± 5	–	–	–	–	–	–	–	–	–	–
CCC1(C2OC(C3OC(O)(CO)C(C)CC3C)CC2C)CCC(C2(C)CCC3(CC(O)C(C)C(C(C)C(OC)C(C)C(=O)OCCOCCOC)O3)O2)O1 (centres unmarked) [MON-E3]	12.1	10	1.68 ± 0.56	10 (≈ 7.73 µg/mL)	100 (≈ 77.3 µg/mL)	20.3 ± 3.1	–	–	–	–	–	–	–	–	–	–
C=CCNC(=O)OCC1(O)OC(C2CC(C)C(C3(CC)CCC(C4(C)CCC5(CC(O)C(C)C(C(C)C(OC)C(C)C(=O)O)O5)O4)O3)O2)C(C)CC1C (centres unmarked) [MON-UR1]	75	100	0.31 ± 0.06	1 (≈ 0.754 µg/mL)	100 (≈ 75.4 µg/mL)	23.3 ± 6.6	–	–	–	–	–	–	–	–	–	–
CC[C@@]1([C@@H]2O[C@@H]([C@H]3O[C@@](O)(CO)[C@H](C)C[C@@H]3C)C[C@@H]2C)CC[C@H]([C@]2(C)CC[C@]3(C[C@H](O)[C@@H](C)[C@@H]([C@@H](C)[C@@H](OC)[C@H](C)C(=O)O)O3)O2)O1 [Monensin, monensin]	51	100	–	–	10 (≈ 6.71 µg/mL)	–	0.1 (≈ 0.0671 µg/mL)	0.029 ± 0.002	1.48 ± 0.56	–	–	–	–	–	–	–
C=CCNC(=O)C(CC)C1CCC(C)C(C(C)C(O)C(C)C(=O)C(CC)C2OC3(C=CC(O)C4(CCC(C)(C5CCC(O)(CC)C(C)O5)O4)O3)C(C)CC2C)O1 (centres unmarked) [SAL-AM1]	12.0	10	3.23 ± 0.21	10 (≈ 7.9 µg/mL)	100 (≈ 79 µg/mL)	38.9 ± 3.2	–	–	–	–	–	–	–	–	–	–
CCCCNC(=O)C(CC)C1CCC(C)C(C(C)C(O)C(C)C(=O)C(CC)C2OC3(C=CC(O)C4(CCC(C)(C5CCC(O)(CC)C(C)O5)O4)O3)C(C)CC2C)O1 (centres unmarked) [SAL-AM2, salinomycin n-butyl amide]	greater than 250	–	0.04 ± 0.007	–	100 (≈ 80.6 µg/mL)	14.5 ± 1.3	–	–	–	0.1 to 1	below 1 μM	0.1 (≈ 0.0806 µg/mL)	cell swelling similar to parasites treated with salinomycin	–	–	–
CCC(C(=O)NCc1ccccc1)C1CCC(C)C(C(C)C(O)C(C)C(=O)C(CC)C2OC3(C=CC(O)C4(CCC(C)(C5CCC(O)(CC)C(C)O5)O4)O3)C(C)CC2C)O1 (centres unmarked) [SAL-AM3]	2.7	10	2.94 ± 0.2	10 (≈ 8.4 µg/mL)	100 (≈ 84 µg/mL)	7.92 ± 1.95	–	–	–	–	–	–	–	–	–	–
CCC(C(=O)NCCc1c[nH]c2ccccc12)C1CCC(C)C(C(C)C(O)C(C)C(=O)C(CC)C2OC3(C=CC(O)C4(CCC(C)(C5CCC(O)(CC)C(C)O5)O4)O3)C(C)CC2C)O1 (centres unmarked) [SAL-AM4]	9.1	10	2.69 ± 0.51	10 (≈ 8.93 µg/mL)	100 (≈ 89.3 µg/mL)	24.5 ± 3.7	–	–	–	–	–	–	–	–	–	–
CCC(C(=O)NCCc1ccc(F)cc1)C1CCC(C)C(C(C)C(O)C(C)C(=O)C(CC)C2OC3(C=CC(O)C4(CCC(C)(C5CCC(O)(CC)C(C)O5)O4)O3)C(C)CC2C)O1 (centres unmarked) [SAL-AM5]	14.6	10	2.69 ± 0.2	10 (≈ 8.72 µg/mL)	100 (≈ 87.2 µg/mL)	39.2 ± 1.6	–	–	–	–	–	–	–	–	–	–
CCC(C(=O)OC)C1CCC(C)C(C(C)C(O)C(C)C(=O)C(CC)C2OC3(C=CC(O)C4(CCC(C)(C5CCC(O)(CC)C(C)O5)O4)O3)C(C)CC2C)O1 (centres unmarked) [SAL-E1]	11.4	10	3.08 ± 0.18	10 (≈ 7.65 µg/mL)	100 (≈ 76.5 µg/mL)	35.5 ± 2.4	–	–	–	–	–	–	–	–	–	–
CCC(C(=O)OCCO)C1CCC(C)C(C(C)C(O)C(C)C(=O)C(CC)C2OC3(C=CC(O)C4(CCC(C)(C5CCC(O)(CC)C(C)O5)O4)O3)C(C)CC2C)O1 (centres unmarked) [SAL-E2]	10.6	10	3.25 ± 0.26	10 (≈ 7.95 µg/mL)	100 (≈ 79.5 µg/mL)	34.6 ± 1.9	–	–	–	–	–	–	–	–	–	–
C=CCOC(=O)C(CC)C1CCC(C)C(C(C)C(O)C(C)C(=O)C(CC)C2OC3(C=CC(O)C4(CCC(C)(C5CCC(O)(CC)C(C)O5)O4)O3)C(C)CC2C)O1 (centres unmarked) [SAL-E3]	10.9	10	3.1 ± 0.21	10 (≈ 7.91 µg/mL)	100 (≈ 79.1 µg/mL)	33.8 ± 3.5	–	–	–	–	–	–	–	–	–	–
CCCCOC(=O)C(CC)C1CCC(C)C(C(C)C(O)C(C)C(=O)C(CC)C2OC3(C=CC(O)C4(CCC(C)(C5CCC(O)(CC)C(C)O5)O4)O3)C(C)CC2C)O1 (centres unmarked) [SAL-E4]	10.5	10	3.12 ± 0.08	10 (≈ 8.07 µg/mL)	100 (≈ 80.7 µg/mL)	32.9 ± 2.5	–	–	–	–	–	–	–	–	–	–
CCC(C(=O)OCc1ccccc1)C1CCC(C)C(C(C)C(O)C(C)C(=O)C(CC)C2OC3(C=CC(O)C4(CCC(C)(C5CCC(O)(CC)C(C)O5)O4)O3)C(C)CC2C)O1 (centres unmarked) [SAL-E5]	–	10	3.21 ± 0.02	10 (≈ 8.41 µg/mL)	100 (≈ 84.1 µg/mL)	38.4 ± 4.2	–	–	–	–	–	–	–	–	–	–
CC[C@@H](C(=O)[C@@H](C)[C@@H](O)[C@H](C)[C@@H]1O[C@@H]([C@@H](CC)C(=O)O)CC[C@@H]1C)[C@H]1O[C@]2(C=C[C@@H](O)[C@]3(CC[C@@](C)([C@H]4CC[C@](O)(CC)[C@H](C)O4)O3)O2)[C@H](C)C[C@@H]1C [Salinomycin, salinomycin]	2.4	1	0.18 ± 0.06	1 (≈ 0.751 µg/mL)	1 (≈ 0.751 µg/mL)	0.44 ± 0.21	–	–	–	–	–	–	continued to swell until the end of experiment	< 100	30	11
Cc1ccc(C(=O)Nc2ccc(S(=O)(=O)O)c3cc(S(=O)(=O)O)cc(S(=O)(=O)O)c23)cc1NC(=O)c1cccc(NC(=O)Nc2cccc(C(=O)Nc3cc(C(=O)Nc4ccc(S(=O)(=O)O)c5cc(S(=O)(=O)O)cc(S(=O)(=O)O)c45)ccc3C)c2)c1 [Suramin, suramin, reference compound]	> 2857	> 1000	–	–	> 100	–	0.1 (≈ 0.13 µg/mL)	0.035 ± 0.002	> 100	–	–	–	–	–	–	–

Reference: PMC4972190, “In vitro activity of salinomycin and monensin derivatives against Trypanosoma brucei” (Parasites & Vectors, 2016)
